# Assay results from publication PMC9838390, “Discovery and biosynthesis of karnamicins as angiotensin converting enzyme inhibitors” (Nature Communications, 2023).
# System: KnmB2
# Assay: NADPH oxidation of KnmB2 and variants (340 nm)
# Type: biochemical, L. rhizosphaerae NEAU-A2
# Description: Hydrogen peroxide formation assay and NADPH oxidation
# The hydrogen peroxide formed from KnmB1, KnmB2 and their variants were measured using the Hydrogen Peroxide Assay Kit (Beyotime Industrial Co. Ltd, Shanghai, China)4-5. 5–100 µL of enzyme reaction mixture was added to 100 µL of working reagent (S0038-1). The mixture was incubated for 30 min at 25 °C, at which time the absorbance at 560 nm was measured by NanoDrop 2000c (Fisher Scientific). The level of H2O2 was calculated according to a standard concentration curve from standard […]
# NADPH detection was carried out in the cuvette by NanoDrop 2000c (Fisher Scientific). NADPH signal at 340 nm was monitored in time using 6220 M–1 cm–1 as […]
# Spectral data for new compounds […]
# Reaction conditions: 50 mM Tris-HCl buffer (pH 7.5),
# 0.15 mM NADPH, and 2 μM KnmB1 or KnmB2. […]
# μM KnmB1 or variants, or 0.1 mM substrate 24/32/36. (h) NADPH oxidation of KnmB2 and variants. (i) NADPH oxidation of KnmB2 and variants in the presence 24 or 32. (j) H2O2 generation for KnmB2 and variants in the presence 24 or 32. Reaction conditions (h-j) for KnmB2 and their variants: 50 mM Tris-HCl buffer (pH 7.5), 0.15 mM NADPH, 2 μM KnmB2 or variants, or 0.1 mM substrate 24/32. Values are the means ± SD of n = 3 independent experiments, except for KnmB2+24 (T = 40 min), KnmB2-N219D+24 (T = 4 min), KnmB2-Y215F+24 (T= 1 min and 3 min) in i and j, and KnmB2+32 (T= 8 min) in j (n = 2). Source data are provided as a Source Data file. […]
structure (smiles),measurement,setting,value
CC(C)CCCCc1nc(-c2cc(O)cc(C(N)=O)n2)cs1 [Compound 24],"NADPH oxidation, average value","KnmB2+24, Time 0",0.0000 µM
same,"NADPH oxidation, average value","KnmB2+24, Time 1",5.8950 µM
same,"NADPH oxidation, average value","KnmB2+24, Time 2",11.0397 µM
same,"NADPH oxidation, average value","KnmB2+24, Time 3",17.6849 µM
same,"NADPH oxidation, average value","KnmB2+24, Time 4",25.7235 µM
same,"NADPH oxidation, average value","KnmB2+24, Time 5",35.2090 µM
same,"NADPH oxidation, average value","KnmB2+24, Time 8",55.4662 µM
same,"NADPH oxidation, average value","KnmB2+24, Time 10",66.9346 µM
same,"NADPH oxidation, average value","KnmB2+24, Time 15",84.8339 µM
same,"NADPH oxidation, average value","KnmB2+24, Time 20",95.5520 µM
same,"NADPH oxidation, average value","KnmB2+24, Time 30",104.1265 µM
same,"NADPH oxidation, average value","KnmB2+24, Time 40",102.4920 µM
same,"NADPH oxidation, average value","KnmB2+24, Time 60",111.3076 µM
same,"NADPH oxidation, average value","KnmB2-F205A+24, Time 0",0.0000 µM
same,"NADPH oxidation, average value","KnmB2-F205A+24, Time 1",0.7985 µM
same,"NADPH oxidation, average value","KnmB2-F205A+24, Time 2",1.4255 µM
same,"NADPH oxidation, average value","KnmB2-F205A+24, Time 3",1.3880 µM
same,"NADPH oxidation, average value","KnmB2-F205A+24, Time 4",1.7631 µM
same,"NADPH oxidation, average value","KnmB2-F205A+24, Time 5",1.7310 µM
same,"NADPH oxidation, average value","KnmB2-F205A+24, Time 8",1.8274 µM
same,"NADPH oxidation, average value","KnmB2-F205A+24, Time 10",2.3312 µM
same,"NADPH oxidation, average value","KnmB2-F205A+24, Time 15",2.6313 µM
same,"NADPH oxidation, average value","KnmB2-F205A+24, Time 20",3.4566 µM
same,"NADPH oxidation, average value","KnmB2-F205A+24, Time 30",5.0911 µM
same,"NADPH oxidation, average value","KnmB2-F205A+24, Time 40",7.7546 µM
same,"NADPH oxidation, average value","KnmB2-F205A+24, Time 60",10.8575 µM
same,"NADPH oxidation, average value","KnmB2-N291D+24, Time 0",0.0000 µM
same,"NADPH oxidation, average value","KnmB2-N291D+24, Time 2",1.4470 µM
same,"NADPH oxidation, average value","KnmB2-N291D+24, Time 4",2.7331 µM
same,"NADPH oxidation, average value","KnmB2-N291D+24, Time 5",4.2337 µM
same,"NADPH oxidation, average value","KnmB2-N291D+24, Time 8",6.8060 µM
same,"NADPH oxidation, average value","KnmB2-N291D+24, Time 10",8.5745 µM
same,"NADPH oxidation, average value","KnmB2-N291D+24, Time 15",11.8971 µM
same,"NADPH oxidation, average value","KnmB2-N291D+24, Time 20",16.3451 µM
same,"NADPH oxidation, average value","KnmB2-N291D+24, Time 30",24.5445 µM
same,"NADPH oxidation, average value","KnmB2-N291D+24, Time 40",34.3516 µM
same,"NADPH oxidation, average value","KnmB2-N291D+24, Time 60",49.1426 µM
same,"NADPH oxidation, average value","KnmB2-Y215A+24, Time 0",0.0000 µM
same,"NADPH oxidation, average value","KnmB2-Y215A+24, Time 1",0.2519 µM
same,"NADPH oxidation, average value","KnmB2-Y215A+24, Time 2",0.5145 µM
same,"NADPH oxidation, average value","KnmB2-Y215A+24, Time 3",0.7020 µM
same,"NADPH oxidation, average value","KnmB2-Y215A+24, Time 4",0.6913 µM
same,"NADPH oxidation, average value","KnmB2-Y215A+24, Time 5",0.7449 µM
same,"NADPH oxidation, average value","KnmB2-Y215A+24, Time 8",0.9968 µM
same,"NADPH oxidation, average value","KnmB2-Y215A+24, Time 10",1.3237 µM
same,"NADPH oxidation, average value","KnmB2-Y215A+24, Time 15",2.0043 µM
same,"NADPH oxidation, average value","KnmB2-Y215A+24, Time 20",2.2883 µM
same,"NADPH oxidation, average value","KnmB2-Y215A+24, Time 30",3.8532 µM
same,"NADPH oxidation, average value","KnmB2-Y215A+24, Time 40",5.5520 µM
same,"NADPH oxidation, average value","KnmB2-Y215A+24, Time 60",9.2926 µM
same,"NADPH oxidation, average value","KnmB2-Y215F+24, Time 0",0.0000 µM
same,"NADPH oxidation, average value","KnmB2-Y215F+24, Time 1",2.5724 µM
same,"NADPH oxidation, average value","KnmB2-Y215F+24, Time 2",4.4480 µM
same,"NADPH oxidation, average value","KnmB2-Y215F+24, Time 3",6.5113 µM
same,"NADPH oxidation, average value","KnmB2-Y215F+24, Time 4",8.5745 µM
same,"NADPH oxidation, average value","KnmB2-Y215F+24, Time 5",12.2187 µM
same,"NADPH oxidation, average value","KnmB2-Y215F+24, Time 8",19.5606 µM
same,"NADPH oxidation, average value","KnmB2-Y215F+24, Time 10",24.7588 µM
same,"NADPH oxidation, average value","KnmB2-Y215F+24, Time 15",37.2990 µM
same,"NADPH oxidation, average value","KnmB2-Y215F+24, Time 20",48.1779 µM
same,"NADPH oxidation, average value","KnmB2-Y215F+24, Time 30",66.6667 µM
same,"NADPH oxidation, average value","KnmB2-Y215F+24, Time 40",81.1361 µM
same,"NADPH oxidation, average value","KnmB2-Y215F+24, Time 60",100.0536 µM
same,coupling efficiency,"hydroxylatable effector for KnmB2, from NADPH consumption and H2O2 formation in time",0–45%
